Measured values: patent US20240239755A1, “SUBSTITUTED PYRIDAZINONES, SALTS OR N-OXIDES THEREOF AND THEIR USE AS HERBICIDALLY ACTIVE SUBSTANCES” (Bayer Aktiengesellschaft, priority 2021, published 2024)

Experiments:
Type in all cases: in vivo
[1] = tested on: Matricaria inodora (MATIN); assay: Herbicidal pre-emergence action, 320 g/ha (Table C3); details: visual grading after ca. 3 weeks vs untreated controls
Text: (§1) Seeds of mono- and dicotyledonous weed plants were sown in plastic pots (double sowings with one species of mono- and one species of dicotyledonous weed plants per pot), in sandy loam, and covered with soil. The compounds according to the invention, formulated in the form of wettable powders (WP) or as emulsifiable concentrates (EC), were applied to the surface of the covering soil as an aqueous suspension or as an emulsion, with the addition of 0.5% of an additive, at an application rate of 600 litres of water per hectare (converted). Following treatment, the pots were placed in a greenhouse and kept under optimum growth conditions for the test plants. The visual grading of the damage to the test plants was carried out after ca. 3 weeks in comparison to untreated controls (herbicidal effect in percent (%): 100% effect=plants have died, 0% effect=as control plants). Tables C1 to C6 below, show the effects of selected compounds of the general formula (I) according to Table 1 on various harmful plants using an application rate corresponding to 320 g/ha obtained by the experimental procedure mentioned above.

[2] = tested on: Abutilon theophrasti (ABUTH); assay: Herbicidal pre-emergence action, 1280 g/ha (Table A1); details: visual grading after ca. 3 weeks vs untreated controls
How it was run: (§2)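 Percent herbicidal damage relative to untreated plants (0% = as control, 100% = plants dead) was graded visually about 3 weeks after treatment under greenhouse conditions. The pre-emergence application went onto the soil surface over sown seeds, as aqueous WP/EC suspension or emulsion at 600 L/ha plus 0.5% additive.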

[3] = tested on: Amaranthus retroflexus (AMARE); assay: Herbicidal post-emergence action, 1280 g/ha, AMARE; details: visual grading vs untreated controls
How it was run: (§3)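 Pot-grown weeds in sandy loam sprayed post-emergence at the single-leaf stage, 2–3 weeks after sowing, with WP or EC formulations plus 0.5% additive in 600 L water/ha at 1280 g/ha. After ca. 3 weeks in the greenhouse, damage scored visually as % effect versus untreated controls (100% = plants dead).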

[4] = tested on: Matricaria inodora (MATIN); assay: Herbicidal pre-emergence action, 1280 g/ha (Table A6); details: visual grading after ca. 3 weeks vs untreated controls
How it was run: as §2

[5] = tested on: Abutilon theophrasti (ABUTH); assay: Herbicidal post-emergence action, 320 g/ha, ABUTH; details: visual grading after ca. 3 weeks
How it was run: (§4)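 Visual herbicidal scoring (0% = like control, 100% = plants died) was done about 3 weeks after treatment, with plants kept in the greenhouse. Treatment was a 320 g/ha spray of WP or EC aqueous preparations with 0.5% additive, at a water volume of 600 L/ha. Plants were at the single-leaf stage, 2–3 weeks post-sowing in sandy loam.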

Stellaria media (STEME) [6] = assay: Herbicidal pre-emergence action, 1280 g/ha (Table A9); details: visual grading after ca. 3 weeks vs untreated controls
How it was run: as §2

Stellaria media (STEME) [7] = assay: Herbicidal post-emergence action, 320 g/ha, STEME; details: visual grading after ca. 3 weeks
How it was run: as §4

Kochia scoparia (KCHSC) [8] = assay: Herbicidal pre-emergence action, 1280 g/ha (Table A4); details: visual grading after ca. 3 weeks vs untreated controls
How it was run: as §2

Lolium rigidum (LOLRI) [9] = assay: Herbicidal pre-emergence action, 1280 g/ha (Table A5); details: visual grading after ca. 3 weeks vs untreated controls
How it was run: as §2

Stellaria media (STEME) [10] = assay: Herbicidal pre-emergence action, 320 g/ha, STEME; details: visual grading after ca. 3 weeks
How it was run: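 Weed seeds sown in sandy loam pots; WP or EC formulations applied pre-emergence to the covering soil surface at 320 g/ha with 0.5% additive in 600 L water/ha. Greenhouse growth; visual damage scored after ca. 3 weeks versus untreated controls (100% = plants died, 0% = as control).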

[11] = tested on: Abutilon theophrasti (ABUTH); assay: Herbicidal post-emergence action, 1280 g/ha (Table B1); details: visual assessment after ca. 3 weeks vs untreated controls
How it was run: (§5)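 Weeds grown in sandy loam under controlled conditions were sprayed post-emergence at the single-leaf stage, 2 to 3 weeks after sowing, with WP or EC formulations plus 0.5% additive at 600 L water/ha. Visual % damage versus untreated controls was scored after ca. 3 weeks in the greenhouse.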

Kochia scoparia (KCHSC) [12] = assay: Herbicidal post-emergence action, 1280 g/ha (Table B4); details: visual assessment after ca. 3 weeks vs untreated controls
How it was run: as §5

[13] = tested on: Amaranthus retroflexus (AMARE); assay: Herbicidal post-emergence action, 320 g/ha, AMARE; details: visual grading after ca. 3 weeks
How it was run: as §4

Veronica persica (VERPE) = assay: Herbicidal post-emergence action, 1280 g/ha, VERPE; details: visual grading vs untreated controls
How it was run: as §3

Stellaria media (STEME) [14] = assay: Herbicidal post-emergence action, 1280 g/ha (Table B9); details: visual assessment after ca. 3 weeks vs untreated controls
How it was run: as §5

Lolium rigidum (LOLRI) [15] = assay: Herbicidal post-emergence action, 320 g/ha, LOLRI; details: visual grading after ca. 3 weeks
Text: (§6) Seeds of mono- and dicotyledonous weed plants were sown in plastic pots (double sowings with one species of mono- and one species of dicotyledonous weed plants per pot), in sandy loam, covered with soil and grown under controlled growth conditions. 2 to 3 weeks after sowing, the test plants were sprayed in the single-leaf stage. The compounds according to the invention, formulated in the form of wettable powders (WP) or as emulsifiable concentrates (EC), were sprayed onto the green plant parts as an aqueous suspension or as an emulsion, with the addition of 0.5% of an additive, at an application rate of 600 litres of water per hectare (converted). The test plants were placed in the greenhouse for ca. 3 weeks under optimum growth conditions, and then the effect of the preparations was assessed visually in comparison with untreated controls (herbicidal effect in percent (%): 100% effect=plants have died, 0% effect=as control plants).
Tables D1 to D8 below, show the effects of selected compounds of the general formula (I) according to Table 1 on various harmful plants using an application rate corresponding to 320 g/ha obtained by the experimental procedure mentioned above.

[16] = tested on: Amaranthus retroflexus (AMARE); assay: Herbicidal pre-emergence action, 320 g/ha, AMARE; details: visual grading after ca. 3 weeks
Text: as §1, with “plants).” for “plants). Tables C1 to C6 below, show the effects of selected compounds of the general formula (I) according to Table 1 on various harmful plants using an application rate corresponding to 320 g/ha obtained by the experimental procedure mentioned above.”
Tables C1 to C6 below, show the effects of selected compounds of the general formula (I) according to Table 1 on various harmful plants using an application rate corresponding to 320 g/ha obtained by the experimental procedure mentioned above.

Lolium rigidum (LOLRI) [17] = assay: Herbicidal post-emergence action, 1280 g/ha (Table B5); details: visual assessment after ca. 3 weeks vs untreated controls
How it was run: as §5

[18] = tested on: Amaranthus retroflexus (AMARE); assay: Herbicidal pre-emergence action, 1280 g/ha (Table A11); details: visual grading after ca. 3 weeks vs untreated controls
How it was run: as §2

Lolium rigidum (LOLRI) [19] = assay: Herbicidal pre-emergence action, 320 g/ha (Table C2); details: visual grading after ca. 3 weeks vs untreated controls
How it was run: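 Applied pre-emergence to the surface of soil covering weed seeds sown in sandy loam, as WP or EC formulations in water with 0.5% additive at 600 L/ha. Greenhouse-grown; damage graded visually at ca. 3 weeks as percent of untreated controls (100% = plants died).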

[20] = tested on: Matricaria inodora (MATIN); assay: Herbicidal post-emergence action, 1280 g/ha (Table B6); details: visual assessment after ca. 3 weeks vs untreated controls
How it was run: as §5

Setaria viridis (SETVI) [21] = assay: Herbicidal post-emergence action, 1280 g/ha (Table B8); details: visual assessment after ca. 3 weeks vs untreated controls
Text: as §6, with “plants). Tables B1 to B11 below, show the effects of selected compounds of the general formula (I) according to Table 1 on various harmful plants using an application rate corresponding to 1280 g/ha obtained by the experimental procedure mentioned above.” for “plants).”

Setaria viridis (SETVI) [22] = assay: Herbicidal pre-emergence action, 1280 g/ha (Table A8); details: visual grading after ca. 3 weeks vs untreated controls
How it was run: as §2

[23] = tested on: Matricaria inodora (MATIN); assay: Herbicidal post-emergence action, 320 g/ha, MATIN; details: visual grading after ca. 3 weeks
How it was run: as §4

Kochia scoparia (KCHSC) [24] = assay: Herbicidal post-emergence action, 320 g/ha, KCHSC; details: visual grading after ca. 3 weeks
How it was run: as §4

Poa annua (POAAN) = assay: Herbicidal pre-emergence action, 1280 g/ha (Table A7); details: visual grading after ca. 3 weeks vs untreated controls
How it was run: as §2

SMILES | herbicidal effect MATIN [1] | herbicidal effect ABUTH [2] | herbicidal effect AMARE [3] | herbicidal effect MATIN [4] | herbicidal effect STEME (Stellaria media (STEME) [6]) | herbicidal effect STEME (Stellaria media (STEME) [7]) | herbicidal effect LOLRI (Lolium rigidum (LOLRI) [9]) | herbicidal effect STEME (Stellaria media (STEME) [10]) | herbicidal effect KCHSC (Kochia scoparia (KCHSC) [12]) | herbicidal effect AMARE [13] | herbicidal effect VERPE (Veronica persica (VERPE)) | herbicidal effect STEME (Stellaria media (STEME) [14]) | herbicidal effect AMARE [16] | herbicidal effect LOLRI (Lolium rigidum (LOLRI) [17]) | herbicidal effect AMARE [18] | herbicidal effect LOLRI (Lolium rigidum (LOLRI) [19]) | herbicidal effect MATIN [20] | herbicidal effect SETVI (Setaria viridis (SETVI) [22]) | herbicidal effect POAAN (Poa annua (POAAN)) | other results
Cc1nn(C)c(=O)c(Oc2cc(Cl)cc(Cl)c2)c1O [Example I-027] | 100% | 100% | 100% | 100% | 100% | 90% | 100% | 100% | 90% | 90% | 90% | 90% | – | – | – | – | – | – | – | herbicidal effect ABUTH [5]: 90%; herbicidal effect KCHSC (Kochia scoparia (KCHSC) [8]): 90%; herbicidal effect ABUTH [11]: 90%
Cc1nn(C)c(=O)c(Oc2cc(Cl)ccc2Cl)c1OC(=O)C(C)C [Example I-095] | – | – | 90% | 90% | 100% | 90% | 100% | 90% | – | – | – | 90% | 90% | 90% | 100% | 90% | 90% | – | – | herbicidal effect LOLRI (Lolium rigidum (LOLRI) [15]): 90%
Cc1nn(C)c(=O)c(Oc2cc(Cl)ccc2Br)c1OC(=O)C(C)C [Example I-092] | – | 90% | 90% | 100% | 100% | 90% | 100% | 90% | – | – | – | 100% | 90% | 90% | 100% | 100% | 90% | 90% | – | herbicidal effect SETVI (Setaria viridis (SETVI) [21]): 90%
Cc1nn(C)c(=O)c(Oc2ccccc2C2CC2)c1O [Example I-014] | – | 90% | 90% | 100% | 100% | 100% | 100% | 100% | 100% | 90% | 90% | 100% | 90% | 90% | 100% | – | 90% | 90% | 90% | herbicidal effect MATIN [23]: 90%; herbicidal effect KCHSC (Kochia scoparia (KCHSC) [24]): 100%
Cc1nn(C)c(=O)c(Oc2ccccc2C#N)c1O [Example I-028] | 100% | – | 90% | 100% | 100% | – | – | 100% | – | – | – | – | – | – | – | – | – | – | 100% | –
